Values joined by “and” are separate entries in the source; they are usually repeats but may differ in a detail not shown here. Equal entries are not always repeated. Inconclusive results and toxic doses are left out.
System: CD2F1 mice, L1210 leukemia ip, survival T/C
Experiment: NCI In Vivo Anticancer Drug Screen. Data for tumor model L1210 Leukemia (intraperitoneal) in CD2F1 (CDF1) mice
Details: higher = longer survival
Experimental: The antitumor activity of compounds was measured in mice bearing transplantable tumors. Survival or tumor size were measured and the results are expressed as the measurement made in the treated group (T) divided by the measurement made in the vehicle treated control group (C). The tumor model used in this assay is L1210 Leukemia (intraperitoneal) in CD2F1 (CDF1) mice

[1] = endpoint: mean survival time, dose: 100.0 mg/kg/injection, schedule: Q01DX001 (ip), vehicle: saline with Tween-80
[2] = endpoint: mean survival time, dose: 200.0 mg/kg/injection, schedule: Q01DX001 (ip), vehicle: saline with Tween-80
[3] = endpoint: mean survival time, dose: 400.0 mg/kg/injection, schedule: Q01DX001 (ip), vehicle: saline with Tween-80
[4] = endpoint: mean survival time, dose: 100.0 mg/kg/injection, schedule: Q01DX001 (ip), vehicle: saline
[5] = endpoint: mean survival time, dose: 200.0 mg/kg/injection, schedule: Q01DX001 (ip), vehicle: saline
[6] = endpoint: mean survival time, dose: 400.0 mg/kg/injection, schedule: Q01DX001 (ip), vehicle: saline
[7] = endpoint: mean survival time, dose: 100.0 mg/kg/injection, schedule: Q01DX009 (ip), vehicle: saline with Tween-80
[8] = endpoint: mean survival time, dose: 100.0 mg/kg/injection, schedule: Q04DX003 (ip), vehicle: saline with Tween-80
[9] = endpoint: mean survival time, dose: 200.0 mg/kg/injection, schedule: Q01DX009 (ip), vehicle: saline with Tween-80
[10] = endpoint: mean survival time, dose: 200.0 mg/kg/injection, schedule: Q04DX003 (ip), vehicle: saline with Tween-80
[11] = endpoint: mean survival time, dose: 400.0 mg/kg/injection, schedule: Q01DX009 (ip), vehicle: saline with Tween-80
[12] = endpoint: mean survival time, dose: 400.0 mg/kg/injection, schedule: Q04DX003 (ip), vehicle: saline with Tween-80
[13] = endpoint: mean survival time, dose: 25.0 mg/kg/injection, schedule: Q01DX009 (ip), vehicle: saline
[14] = endpoint: mean survival time, dose: 50.0 mg/kg/injection, schedule: Q01DX009 (ip), vehicle: saline
[15] = endpoint: mean survival time, dose: 100.0 mg/kg/injection, schedule: Q01DX009 (ip), vehicle: saline
[16] = endpoint: mean survival time, dose: 100.0 mg/kg/injection, schedule: Q04DX003 (ip), vehicle: other

## [Cl][Pt+2][Cl].[NH-]C1CCC1.[NH2-]
endpoint: mean survival time, dose: 0.39 mg/kg/injection, schedule: Q04DX003 (ip), vehicle: saline
  T/C: 98 % of control
endpoint: mean survival time, dose: 0.78 mg/kg/injection, schedule: Q04DX003 (ip), vehicle: saline
  T/C: 100 % of control
endpoint: mean survival time, dose: 1.56 mg/kg/injection, schedule: Q04DX003 (ip), vehicle: saline
  T/C: 120 % of control
endpoint: mean survival time, dose: 3.12 mg/kg/injection, schedule: Q04DX003 (ip), vehicle: distilled water + Tween-80
  T/C: 110 % of control
endpoint: mean survival time, dose: 3.12 mg/kg/injection, schedule: Q04DX003 (ip), vehicle: water
  T/C: 200 % of control
endpoint: mean survival time, dose: 6.25 mg/kg/injection, schedule: Q04DX003 (ip), vehicle: distilled water + Tween-80
  T/C: 86 % of control
endpoint: mean survival time, dose: 6.25 mg/kg/injection, schedule: Q04DX003 (ip), vehicle: saline
  T/C: 168 % of control
endpoint: mean survival time, dose: 6.25 mg/kg/injection, schedule: Q04DX003 (ip), vehicle: water
  T/C: 111 % of control
endpoint: median survival time, dose: 0.38 mg/kg/injection, schedule: Q01DX009 (ip), vehicle: saline
  T/C: 122 % of control
endpoint: median survival time, dose: 1.5 mg/kg/injection, schedule: Q01DX009 (ip), vehicle: saline
  T/C: 156 % of control and 172 % of control
endpoint: median survival time, dose: 3.0 mg/kg/injection, schedule: Q01DX009 (ip), vehicle: saline
  T/C: 184 % of control and 213 % of control
endpoint: median survival time, dose: 3.0 mg/kg/injection, schedule: Q01DX009 (ip), vehicle: suspension in saline
  T/C: 314 % of control
endpoint: median survival time, dose: 6.0 mg/kg/injection, schedule: Q01DX009 (ip), vehicle: saline
  T/C: 116 % of control and 123 % of control
endpoint: median survival time, dose: 12.0 mg/kg/injection, schedule: Q01DX009 (ip), vehicle: suspension in saline
  T/C: 111 % of control

## COc1ccc(C)c2nc3ccccc3nc12
[1]
  T/C: 98 % of control
[2]
  T/C: 97 % of control
[3]
  T/C: 98 % of control

## CCCC(CCC)NCCO
endpoint: mean survival time, dose: 75.0 mg/kg/injection, schedule: Q01DX001 (ip), vehicle: saline
  T/C: 98 % of control
endpoint: mean survival time, dose: 150.0 mg/kg/injection, schedule: Q01DX001 (ip), vehicle: saline
  T/C: 96 % of control

## CCOC(=O)C(N)Cc1ccc(OC)c(N(CCCl)CCCl)c1 (stereo not given)
endpoint: mean survival time, dose: 1.1 mg/kg/injection, schedule: Q01DX001 (ip), vehicle: carboxymethylcellulose (CMC)
  T/C: 122 % of control
endpoint: mean survival time, dose: 1.7 mg/kg/injection, schedule: Q01DX001 (ip), vehicle: carboxymethylcellulose (CMC)
  T/C: 120 % of control

## COc1ccc(Cc2cncc3cc(O)c(OC)cc23)cc1O
[4]
  T/C: 102 % of control
[5]
  T/C: 96 % of control
[6]
  T/C: 96 % of control

## O=C(NC(Cc1ccc(I)cc1)C(=O)O)c1cccc(Br)c1 (stereo not given)
endpoint: median survival time, dose: 25.0 mg/kg/injection, schedule: Q01DX009 (ip), vehicle: Klucel (hydroxypropylcellulose) (HPC)
  T/C: 105 % of control
endpoint: median survival time, dose: 50.0 mg/kg/injection, schedule: Q01DX009 (ip), vehicle: Klucel (hydroxypropylcellulose) (HPC)
  T/C: 97 % of control
endpoint: median survival time, dose: 100.0 mg/kg/injection, schedule: Q01DX009 (ip), vehicle: Klucel (hydroxypropylcellulose) (HPC)
  T/C: 94 % of control
endpoint: median survival time, dose: 200.0 mg/kg/injection, schedule: Q01DX009 (ip), vehicle: Klucel (hydroxypropylcellulose) (HPC)
  T/C: 94 % of control

## CCCCCCCN=NC
endpoint: mean survival time, dose: 75.0 mg/kg/injection, schedule: Q01DX001 (ip), vehicle: other
  T/C: 96 % of control
endpoint: mean survival time, dose: 150.0 mg/kg/injection, schedule: Q01DX001 (ip), vehicle: other
  T/C: 100 % of control
endpoint: mean survival time, dose: 300.0 mg/kg/injection, schedule: Q01DX001 (ip), vehicle: other
  T/C: 93 % of control

## CCCSc1ncnc2nc[nH]c12
endpoint: median survival time, dose: 31.25 mg/kg/injection, schedule: Q01DX009 (ip), vehicle: saline
  T/C: 100 % of control
endpoint: median survival time, dose: 62.5 mg/kg/injection, schedule: Q01DX009 (ip), vehicle: saline
  T/C: 114 % of control and 111 % of control
endpoint: median survival time, dose: 125.0 mg/kg/injection, schedule: Q01DX009 (ip), vehicle: saline
  T/C: 121 % of control and 111 % of control
endpoint: median survival time, dose: 250.0 mg/kg/injection, schedule: Q01DX009 (ip), vehicle: saline
  T/C: 122 % of control

## CCOC(=O)C(Cc1ccc(OC)c(OC)c1)C(Cc1ccc(OC)c(OC)c1)C(=O)OCC (stereo not given)
[7]
  T/C: 96 % of control
[8]
  T/C: 95 % of control
[9]
  T/C: 95 % of control
[10]
  T/C: 93 % of control
[11]
  T/C: 96 % of control
[12]
  T/C: 87 % of control

## NCCCNCCSP(=O)(O)O
endpoint: mean survival time, dose: 12.5 mg/kg/injection, schedule: Q01DX009 (ip), vehicle: saline with Tween-80
  T/C: 106 % of control
endpoint: mean survival time, dose: 12.5 mg/kg/injection, schedule: Q01DX009 (ip), vehicle: saline
  T/C: 95 % of control
endpoint: mean survival time, dose: 25.0 mg/kg/injection, schedule: Q01DX009 (ip), vehicle: saline with Tween-80
  T/C: 101 % of control
[13]
  T/C: 106 % of control
endpoint: mean survival time, dose: 50.0 mg/kg/injection, schedule: Q01DX009 (ip), vehicle: saline with Tween-80
  T/C: 102 % of control
[14]
  T/C: 101 % of control
[7]
  T/C: 101 % of control
[15]
  T/C: 96 % of control
[9]
  T/C: 104 % of control
endpoint: mean survival time, dose: 200.0 mg/kg/injection, schedule: Q01DX009 (ip), vehicle: saline
  T/C: 106 % of control
endpoint: mean survival time, dose: 400.0 mg/kg/injection, schedule: Q01DX009 (ip), vehicle: saline
  T/C: 93 % of control

## Cc1c(Cl)c(C)c(Cl)c(O)c1Cl (tested in a mixture with another compound)
endpoint: mean survival time, dose: 50.0 mg/kg/injection, schedule: Q01DX005 (ip), vehicle: saline with Tween-80
  T/C: 97 % of control
endpoint: mean survival time, dose: 100.0 mg/kg/injection, schedule: Q01DX005 (ip), vehicle: saline with Tween-80
  T/C: 91 % of control

## CN(C)B(B(N(C)C)N(C)C)N(C)C
[4]
  T/C: 105 % of control
[5]
  T/C: 97 % of control
[6]
  T/C: 101 % of control

## O=C(C=C(C(F)(F)F)C(F)(F)F)c1ccc(F)cc1
[16]
  T/C: 88 % of control

## CNC(=O)Nc1nc2ccccc2[nH]1
endpoint: mean survival time, dose: 50.0 mg/kg/injection, schedule: Q04DX003 (ip), vehicle: Klucel (hydroxypropylcellulose) (HPC)
  T/C: 101 % of control
endpoint: mean survival time, dose: 100.0 mg/kg/injection, schedule: Q04DX003 (ip), vehicle: Klucel (hydroxypropylcellulose) (HPC)
  T/C: 102 % of control
endpoint: mean survival time, dose: 200.0 mg/kg/injection, schedule: Q04DX003 (ip), vehicle: Klucel (hydroxypropylcellulose) (HPC)
  T/C: 104 % of control
endpoint: mean survival time, dose: 400.0 mg/kg/injection, schedule: Q04DX003 (ip), vehicle: Klucel (hydroxypropylcellulose) (HPC)
  T/C: 102 % of control

## Cc1ccc(N)nc1[N+](=O)[O-]
endpoint: mean survival time, dose: 100.0 mg/kg/injection, schedule: Q01DX009 (ip), vehicle: other
  T/C: 100 % of control
[16]
  T/C: 102 % of control
endpoint: mean survival time, dose: 200.0 mg/kg/injection, schedule: Q01DX009 (ip), vehicle: other
  T/C: 96 % of control
endpoint: mean survival time, dose: 200.0 mg/kg/injection, schedule: Q04DX003 (ip), vehicle: other
  T/C: 96 % of control
endpoint: mean survival time, dose: 400.0 mg/kg/injection, schedule: Q01DX009 (ip), vehicle: other
  T/C: 100 % of control
endpoint: mean survival time, dose: 400.0 mg/kg/injection, schedule: Q04DX003 (ip), vehicle: other
  T/C: 96 % of control

## O=C(N/N=C/c1cccc2ccccc12)C(O)c1ccccc1 (stereo not given)
[7]
  T/C: 104 % of control
[9]
  T/C: 101 % of control
[11]
  T/C: 98 % of control

## CCCCNC(C)(C)C(=O)c1cccs1
[13]
  T/C: 94 % of control
[14]
  T/C: 98 % of control
[15]
  T/C: 100 % of control

## Cc1cc2c(cc1C)[n+]([O-])c1c(=O)[nH]c(=O)[nH]c1[n+]2[O-]
endpoint: mean survival time, dose: 25.0 mg/kg/injection, schedule: Q04DX002 (ip), vehicle: saline with Tween-80
  T/C: 98 % of control
endpoint: mean survival time, dose: 50.0 mg/kg/injection, schedule: Q04DX002 (ip), vehicle: saline with Tween-80
  T/C: 102 % of control

## COC(=O)C1CCC2C3CC=C4CC(O)CCC4(C)C3CCC12C (stereo not given)
[1]
  T/C: 98 % of control
[2]
  T/C: 93 % of control
[3]
  T/C: 93 % of control

## Cc1c(F)c(F)c(C(=O)O)c(F)c1F
[7]
  T/C: 96 % of control
[8]
  T/C: 100 % of control
[9]
  T/C: 93 % of control
[10]
  T/C: 101 % of control
[12]
  T/C: 93 % of control

## O=C1NC(=O)c2ccccc21
endpoint: mean survival time, dose: 100.0 mg/kg/injection, schedule: Q01DX009 (ip), vehicle: Klucel (hydroxypropylcellulose) (HPC)
  T/C: 102 % of control
endpoint: mean survival time, dose: 200.0 mg/kg/injection, schedule: Q01DX009 (ip), vehicle: Klucel (hydroxypropylcellulose) (HPC)
  T/C: 106 % of control
endpoint: mean survival time, dose: 400.0 mg/kg/injection, schedule: Q01DX009 (ip), vehicle: Klucel (hydroxypropylcellulose) (HPC)
  T/C: 101 % of control

## NC(=S)NNc1c(NNC(N)=S)c(=O)c1=O
[4]
  T/C: 93 % of control
[5]
  T/C: 98 % of control
[6]
  T/C: 102 % of control

Source: PubChem BioAssay AID256 (DTP/NCI, 2004)
